Test results as given in US20260085101A1, “NOVEL PLATELET DERIVED GROWTH FACTOR PEPTIDE MIMETIC” (THE UNIVERSITY OF SYDNEY, priority 2022, published 2026).

Assays:
C2C12 mouse myoblasts = assay: Collagen gel contraction assay with C2C12 cells; format: cell-based; conditions: for collagen gel contracted to % of its initial surface area: 24-hour incubation, 10 ng/ml PDGF, 1 μg/ml peptides, 10 μM AG1296, mean (±SD); for difference in collagen gel area versus negative control AG1296 co-treated with PDGF−AB (Mean Diff.) / difference in collagen gel area versus no treatment control (Mean Diff.): 24 hours; for difference in collagen gel area versus negative control AG1296 co-treated with PDGF−AB (Mean Diff.): vs negative control (55.25%); for difference in collagen gel area versus no treatment control (Mean Diff.): vs no treatment control (41.27%)
Excerpt: FIG. 3. Collagen Contraction of C2C12 Mouse Fibroblasts Treated with PDGF and peptides JC5 and JC5a. […] Error bars represent ±SD, n=8/4. The function of Compounds Ia (also referred to herein as JC5) and Ib (also referred to herein as JC5a) has been tested in vitro on the continuous cell line, C2C12 mouse myoblasts. In these in vitro assays recombinant PDGF−AB and −BB have been used as positive controls along with a serum starved no treatment control and the PDGF receptor inhibitor AG1296 co-treated with PDGF−AB as a negative control. The in vitro assays were designed to assess the major known functions of PDGF whilst also considering functions that are relevant to its in vivo applications. These functions were chemotaxis, collagen contraction, vascular tube formation and activation of the PDGF receptors via phosphorylation of Akt and Erk. Collagen contraction is an important function during wound healing of many tissues including the heart. This can be simulated in vitro using a collagen gel contraction assay. This was assessed using C2C12 cells treated with the positive controls 10 ng/ml recombinant PDGF-BB and PDGF−AB, negative control 10 μM AG1296 co-treated with 10 ng/ml recombinant PDGF−AB, a serum starved no treatment control and 1 μg/ml of the peptides JC5 and JC5a. C2C12 mouse myoblasts were seeded in a 3D collagen gel crosslinked with NaOH and incubated at 37° C. for 24 hours following treatment with the four controls and peptides JC5 and JC5a.

C57BL6/J mice = assay: Murine model of acute myocardial infarction (permanent LAD occlusion), echocardiography and heart weight/tibia length; format: in vivo, mouse; conditions: for average day 2 to day 28 Δ ejection fraction: change from day 2 to day 28; for day 28 ejection fraction / decrease in ESV versus PBS (MI) cohort (mean diff.) / mean heart weight/tibia length / mean end systolic volume (ESV) at day 28 / mean end diastolic volume (EDV) at day 28: mice; for day 28 ejection fraction: 28 days post MI, 60 μg/kg PDGF−AB or 32.50 mg/kg peptide via implanted minipump, mean (±SD), PBS 26.89%; for decrease in ESV versus PBS (MI) cohort (mean diff.) / mean heart weight/tibia length / mean end systolic volume (ESV) at day 28 / mean end diastolic volume (EDV) at day 28: day 28 post MI; for mean heart weight/tibia length: PBS 0.01913; for mean end systolic volume (ESV) at day 28 / mean end diastolic volume (EDV) at day 28: minipump; for mean end systolic volume (ESV) at day 28: PBS 116.6 μL; for mean end diastolic volume (EDV) at day 28: PBS 155.9 μL
Excerpt: FIG. 9: Improved Cardiac function at Day 28 Post Myocardial Infarction. […] C) A decrease in end diastolic volumes was also observed in PDGF−AB (p=0.0016) and JC5 (p=0.0185) treated mice versus PBS. […] E) Timeline of mean EF per treatment group. Baseline indicates the pre-infarct EF per group. Day 2 and day 28 indicates days post infarct. A-C) Error bars represent ±SD. D) Data presented as median ±minimum and maximum values. One way ANOVA comparing all groups to the PBS vehicle control group (n=10/11).
FIG. 11: Decreased Heart Weight/Tibia Length in Mice Treated with JC5. […] Error bars represent ±SD.
Cardiac function was monitored using echocardiography with a post MI baseline at day 2 and a day 28 end point followed by tissue collection and calculation of heart weight divided by tibia length. Mice were randomised into treatment groups receiving either 60 μg/kg of the positive control recombinant human PDGF−AB, 32.50 mg/kg of novel mimetic peptide JC5, 32.50 mg/kg of novel mimetic peptide JC5a, or phosphate buffered saline (PBS) as a vehicle control, via implanted minipump, at the time of infarction. In addition to this sham controls were included using non-infarcted healthy mice receiving either 32.50 mg/kg of novel mimetic peptide JC5 or 32.50 mg/kg of novel mimetic peptide JC5a.
Left ventricular ejection fraction (LVEF) is directly proportionate to the difference between left ventricle end diastolic volume and the left ventricular end systolic volume (LVEDV-LVESV) and inversely proportionate to left ventricular end diastolic volume (LVEDV). The value is created by the following equation LVEF=(LVEDV-LVESV)/LVEDV. Increased end diastolic volume (EDV) indicates possible dilation of the ventricle whilst increased end systolic volume (ESV) indicates a possible decrease in contractile function. In mice treated with positive control PDGF−AB (MI) and novel mimetic peptide JC5 (MI) there was a significant decrease in both ESV and EDV at day 28 when compared to the vehicle control, PBS (MI), cohort. The decreased ESV of the PDGF−AB (MI) cohort at day 28 aligned with what was expected of the positive control with a mean ESV of 55.04 μL (±23.66), […] (mean diff.) less than the PBS (MI) cohort (p=0.0003). […] These were both a significant decrease from the PBS (MI) cohort with a mean EDV of 155.9 μL (±47.15) (JC5 p=0.0185, PDGF−AB p=0.0016).

PDGF receptor = target: T1, PDGF receptor (Mus musculus, UniProt P05622); assay: Western blot for phosphorylation of ERK in C2C12 cells (PDGF receptor activation); format: cell-based; conditions: for phosphorylation of ERK (pERK): 10 ng/ml PDGF, 1 μg/ml peptide, vs no treatment and AG1296+PDGF−AB controls
T1 construct: Phosphorylation of ERK following treatment of C2C12 Cells with PDGF and JC5; endogenous in cells; host or cells: C2C12 mouse myoblasts
Method: FIG. 5. Phosphorylation of ERK following treatment of C2C12 Cells with PDGF and JC5. Western blots for total (ERK) and phosphorylated ERK (pERK) at 42 and 44 kDa show an increase in phosphorylation following treatment with 10 ng/ml PDGF−BB and 1 μg/ml of JC5. FIG. 6. Phosphorylation of ERK following treatment of C2C12 Cells with PDGF and JC5a. Western blots for total (ERK) and phosphorylated ERK (pERK) at 42 and 44 kDa show an increase in phosphorylation 10 minutes post treatment with 10 ng/ml PDGF−BB and 1 μg/ml of novel mimetic peptide JC5a. JC5a maintained this increased phosphorylation of ERK at 30 minutes post treatment. PDGF receptor activation takes place via autophosphorylation of tyrosine […] residues at key sites throughout the intracellular domain. Autophosphorylation engages different signaling pathways, including ERK (MAPK) which participates in proliferation, cell survival, angiogenesis, and chemotactic activity of cells. Phosphorylation of ERK indicates successful activation of the PDGF receptor.

T1 sequence (P05622 32-1098): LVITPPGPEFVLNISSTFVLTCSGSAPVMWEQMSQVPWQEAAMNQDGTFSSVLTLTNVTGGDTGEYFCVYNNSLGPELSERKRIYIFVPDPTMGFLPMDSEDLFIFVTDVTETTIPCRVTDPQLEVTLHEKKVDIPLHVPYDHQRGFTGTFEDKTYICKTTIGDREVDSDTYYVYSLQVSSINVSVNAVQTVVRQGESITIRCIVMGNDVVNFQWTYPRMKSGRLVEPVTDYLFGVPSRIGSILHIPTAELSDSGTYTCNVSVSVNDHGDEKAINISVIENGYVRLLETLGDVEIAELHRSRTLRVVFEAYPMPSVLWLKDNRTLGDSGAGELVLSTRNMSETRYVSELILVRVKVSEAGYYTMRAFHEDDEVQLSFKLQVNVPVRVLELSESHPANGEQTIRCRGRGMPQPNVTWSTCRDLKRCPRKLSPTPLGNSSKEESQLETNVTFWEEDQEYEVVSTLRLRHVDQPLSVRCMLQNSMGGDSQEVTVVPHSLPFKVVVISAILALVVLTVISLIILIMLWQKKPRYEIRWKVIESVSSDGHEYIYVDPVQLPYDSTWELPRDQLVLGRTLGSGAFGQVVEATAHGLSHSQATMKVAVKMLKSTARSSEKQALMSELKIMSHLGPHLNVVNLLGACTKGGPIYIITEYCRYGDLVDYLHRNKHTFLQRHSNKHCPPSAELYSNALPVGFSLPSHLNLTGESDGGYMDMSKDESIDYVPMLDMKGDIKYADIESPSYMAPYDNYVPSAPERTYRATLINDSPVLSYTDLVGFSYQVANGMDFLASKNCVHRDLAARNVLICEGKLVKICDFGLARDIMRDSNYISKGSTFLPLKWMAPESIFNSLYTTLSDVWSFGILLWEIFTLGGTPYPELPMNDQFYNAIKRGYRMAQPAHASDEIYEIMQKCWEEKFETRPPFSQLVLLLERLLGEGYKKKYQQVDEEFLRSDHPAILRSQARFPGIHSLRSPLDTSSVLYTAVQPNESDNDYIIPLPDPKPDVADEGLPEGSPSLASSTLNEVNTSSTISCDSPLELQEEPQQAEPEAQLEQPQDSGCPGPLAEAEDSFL

Compound	collagen gel contracted to % of its initial surface area (C2C12 mouse myoblasts) [%]	difference in collagen gel area versus negative control AG1296 co-treated with PDGF−AB (Mean Diff.) (C2C12 mouse myoblasts) [%]	difference in collagen gel area versus no treatment control (Mean Diff.) (C2C12 mouse myoblasts) [%]	average day 2 to day 28 Δ ejection fraction (C57BL6/J mice; mice post MI) [%]	day 28 ejection fraction (C57BL6/J mice) [%]	decrease in ESV versus PBS (MI) cohort (mean diff.) (C57BL6/J mice) [µL]	mean heart weight/tibia length (C57BL6/J mice)	mean end systolic volume (ESV) at day 28 (C57BL6/J mice) [µL]	mean end diastolic volume (EDV) at day 28 (C57BL6/J mice) [µL]	phosphorylation of ERK (pERK) (PDGF receptor)	day 2 to day 28 change in ejection fraction greater than PBS (MI) (mean diff.) (C57BL6/J mice; mice post MI, vs PBS vehicle control) [%]	phosphorylation of ERK (pERK) at 30 minutes post treatment (PDGF receptor; 1 μg/ml JC5a, 30 minutes)
PDGF Loop III dimer HSA (CVRKIEIVRKK)2(Peg3)2EYEK(Palm)EYE-C′ [JC5]	23.01	32.23	18.26	6.686	42.06	49.58	0.01462	67.01	108.6	phosphorylation of ERK (pERK) can be seen	–	–
CCCCCCCCCCCCCCCC(=O)NCCCC[C@H](NC(=O)[C@H](CCC(=O)O)NC(=O)[C@H](Cc1ccc(O)cc1)NC(=O)[C@@H](CCC(=O)O)NC(=O)CCOCCOCCOCCNC(=O)CCOCCOCCOCCNC(=O)[C@@H](CCCCN)NC(=O)[C@@H](CCCCN)NC(=O)[C@@H](CCCNC(=N)N)NC(=O)[C@@H](NC(=O)[C@@H](NC(=O)[C@H](CCC(=O)O)NC(=O)[C@@H](NC(=O)[C@H](CCCCN)NC(=O)[C@@H](CCCNC(=N)N)NC(=O)[C@H](NC(=O)[C@H](N)CSSC[C@@H](N)C(=O)N[C@@H](C(=O)N[C@H](CCCNC(=N)N)C(=O)N[C@@H](CCCCN)C(=O)N[C@H](C(=O)N[C@@H](CCC(=O)O)C(=O)N[C@H](C(=O)N[C@H](C(=O)N[C@H](CCCNC(=N)N)C(=O)N[C@H](CCCCN)C(=O)N[C@H](CCCCN)C(=O)NCCOCCOCCOCCC(=O)NCCOCCOCCOCCC(=O)N[C@H](CCC(=O)O)C(=O)N[C@@H](Cc1ccc(O)cc1)C(=O)N[C@@H](CCC(=O)O)C(=O)N[C@@H](CCCCNC(=O)CCCCCCCCCCCCCCC)C(=O)N[C@@H](CCC(=O)O)C(=O)N[C@@H](Cc1ccc(O)cc1)C(=O)N[C@@H](CCC(=O)O)C(N)=O)C(C)C)[C@H](C)CC)[C@@H](C)CC)C(C)C)C(C)C)[C@@H](C)CC)[C@H](C)CC)C(C)C)C(=O)N[C@@H](CCC(=O)O)C(=O)N[C@@H](Cc1ccc(O)cc1)C(=O)N[C@@H](CCC(=O)O)C(N)=O [JC5a, PDGF Loop III dimer USA dimer (CVRKIEIVRKK)2(Peg3)2(EYEK(Palm)EYE)2-C′]	33.28	21.96	–	10.82	39.24	–	–	–	–	phosphorylation of ERK (pERK) can be seen	18.02	preserved phosphorylation of ERK (pERK)
PDGF−AB: recombinant human PDGF−AB, AB heterodimer of recombinant PDGF, positive control	22.46	32.79	18.82	7.104	43.44	61.54	0.01344	55.04	93.75	pERK is induced by PDGF−BB but not PDGF−AB	–	–
